In series [1] the test system is Hepatitis C virus. Briefly: Antiviral activity against HCV genotype 1a. In kind it is functional, organism-based, Hepacivirus hominis.
In series [2] the test system is Hepatitis C virus. Briefly: Antiviral activity against HCV genotype 1b. In kind it is functional, organism-based, Hepacivirus hominis.
A short description of series [3]: Half life in dog liver microsomes. The format is ADME, Canis lupus familiaris, Microsome. In general terms: Microsomes from liver hold many membrane-bound enzymes, among them those of drug oxidation.
The target of series [4] is RNA-directed RNA polymerase (Hepacivirus hominis, UniProt O39930). The series is described as follows: Inhibition of Hepatitis C virus NS5B polymerase.
Series [5] concerns Hepatitis C virus. Briefly: Antiviral activity against HCV genotype 1b Tyr93His mutant. To be noted: Hepacivirus hominis.
For series [6], the system named is Hepatitis C virus. The series is described as follows: Antiviral activity against HCV genotype 1b harboring NS5A Y93H mutant. In kind it is functional, organism-based, Hepacivirus hominis.
Series [7] can be described thus: Binding affinity to Hepatitis C virus NS3 assessed as inhibition constant. The arrangement: species or system Hepacivirus hominis.
A short description of series [8]: Binding affinity to Hepatitis C virus NS3 protease (1027 to 1206 residues) expressed in Escherichia coli assessed as inhibition constant. Also on record: species or system Hepacivirus hominis.
In series [9] the test system is Hepatitis C virus. Briefly: Antiviral activity against HCV GT1a-genotype assessed as inhibition of viral replication. The format is functional, organism-based, Hepacivirus hominis.
For series [10], the system named is Hepatitis C virus. Briefly: Antiviral activity against HCV GT1b-genotype assessed as viral growth inhibition measured after 24 hrs. The format is functional, organism-based, Hepacivirus hominis. To be noted: Hepatitis C virus, GT1b-genotype, 24 h.
Series [11] addresses T1, Hepatitis C virus serine protease, NS3/NS4A (Hepatitis C virus, UniProt A3EZI9+D2K2A8). Briefly: Inhibition of Hepatitis C virus NS3/NS4A protease. In kind it is protein-complex assay, Hepacivirus hominis.
Series [12] has as its target T1, Hepatitis C virus serine protease, NS3/NS4A. Briefly: Inhibition of HCV NS4A-NS3 protease. In kind it is protein-complex assay, Hepacivirus hominis.

Square brackets hold non-standard residues; d marks the D form. Peptide text beside a SMILES is read from it. * marks the point of attachment. Dip = N[C@H](C(=O)O)C(c1ccccc1)c1ccccc1; CH2(1-naphthyl) = c1ccc2c(C*)cccc2c1; Abu(4,4-F2) = N[C@@H](CC(F)F)C(=O)O; Hyp = O=C(O)[C@@H]1C[C@@H](O)CN1; Cha = N[C@@H](CC1CCCCC1)C(=O)O; Chg = N[C@H](C(=O)O)C1CCCCC1; Ac3c = NC1(C(=O)O)CC1

T1 sequence (D2K2A8 whole entry): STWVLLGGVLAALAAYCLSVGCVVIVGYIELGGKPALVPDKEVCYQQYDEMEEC
T1 sequence (A3EZI9 whole entry): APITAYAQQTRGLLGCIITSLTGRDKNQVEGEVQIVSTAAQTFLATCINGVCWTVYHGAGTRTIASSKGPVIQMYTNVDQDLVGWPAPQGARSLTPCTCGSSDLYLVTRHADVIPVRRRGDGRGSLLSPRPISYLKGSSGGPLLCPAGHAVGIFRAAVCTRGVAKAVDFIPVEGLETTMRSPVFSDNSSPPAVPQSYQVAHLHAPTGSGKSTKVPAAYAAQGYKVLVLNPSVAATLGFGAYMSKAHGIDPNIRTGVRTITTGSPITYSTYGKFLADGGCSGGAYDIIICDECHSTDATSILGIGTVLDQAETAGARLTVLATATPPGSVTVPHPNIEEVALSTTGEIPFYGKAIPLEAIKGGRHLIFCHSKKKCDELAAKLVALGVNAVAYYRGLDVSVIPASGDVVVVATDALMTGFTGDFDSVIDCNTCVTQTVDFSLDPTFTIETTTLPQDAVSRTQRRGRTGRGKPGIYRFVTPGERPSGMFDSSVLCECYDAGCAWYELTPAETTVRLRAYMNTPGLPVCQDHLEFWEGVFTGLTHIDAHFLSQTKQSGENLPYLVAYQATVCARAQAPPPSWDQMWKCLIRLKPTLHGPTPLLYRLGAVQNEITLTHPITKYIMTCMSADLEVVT
RNA-directed RNA polymerase, sequence (O39930 whole entry): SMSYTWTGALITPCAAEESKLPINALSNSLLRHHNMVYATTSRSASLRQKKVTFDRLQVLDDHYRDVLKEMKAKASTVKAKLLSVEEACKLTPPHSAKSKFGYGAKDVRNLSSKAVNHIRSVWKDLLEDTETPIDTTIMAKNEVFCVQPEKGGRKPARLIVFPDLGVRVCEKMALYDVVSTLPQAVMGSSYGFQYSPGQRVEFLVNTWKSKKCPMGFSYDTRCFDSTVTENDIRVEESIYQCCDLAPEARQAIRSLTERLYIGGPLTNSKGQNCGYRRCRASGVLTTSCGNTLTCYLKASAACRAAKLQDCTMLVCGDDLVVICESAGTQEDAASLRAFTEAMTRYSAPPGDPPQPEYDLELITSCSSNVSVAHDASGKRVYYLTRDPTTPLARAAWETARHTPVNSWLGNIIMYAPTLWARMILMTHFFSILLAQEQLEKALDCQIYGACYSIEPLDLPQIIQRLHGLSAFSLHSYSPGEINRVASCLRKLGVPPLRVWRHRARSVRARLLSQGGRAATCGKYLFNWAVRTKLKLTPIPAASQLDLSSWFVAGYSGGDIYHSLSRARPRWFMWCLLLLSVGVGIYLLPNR

For orientation: EC50 means the concentration giving half of the maximal effect. As for `CN(C)[C@@H](C(=O)N1CCC[C@H]1c1ncc(-c2ccc(-c3ccc(-c4cnc([C@@H]5CCCN5C(=O)[C@@H](c5ccccc5)N(C)C)[nH]4)cc3)cc2)[nH]1)c1ccccc1`, the EC50 with Hepatitis C virus [1] is 0.037 nM; in the series on Hepatitis C virus [2], 0.042 nM.
For the compound `COC(=O)N[C@@H](C(=O)N1CCC[C@H]1c1ncc(-c2ccc(-c3ccc(-c4cnc([C@@H]5CCCN5C(=O)[C@H](NC(=O)OC)c5ccccc5)[nH]4)cc3)cc2)[nH]1)c1ccccc1`, the EC50 amounted to 0.028 nM with Hepatitis C virus [1] and 0.0067 nM with Hepatitis C virus [2].
In general, half-life refers to the time needed for the level to fall by half in the phase considered. Read a high half-life as slow decline. `C=C[C@@H]1C[C@]1(NC(=O)[C@@H]1C[C@@H](Oc2cc(-c3ccccc3)nc3cc(OC)ccc23)CN1C(=O)[C@@H](NC(=O)OC(C)(C)C)C(C)(C)C)C(=O)NS(=O)(=O)C1CC1` registered a half-life in [3] of 2.83 h.
By IC50 is commonly meant the concentration that gives 50% inhibition. A high value points to weaker potency in that assay. Consider `Cn1c(-c2ccccc2)c(C2CCCCC2)c2ccc(C(=O)O)cc21`, for which, in series [4], the half-inhibitory concentration (IC50) was determined as 120 nM.
As for `O=C1N[C@H]2[C@H](CS[C@H]2CCCCC(=O)N2CCC[C@H]2C(=O)Nc2ccc(/C=C/c3ccc(NC(=O)[C@@H]4CCCN4C(=O)Cc4ccccc4)cc3)cc2)N1`, the figures for the EC50 in the series on Hepatitis C virus [1], in the series on Hepatitis C virus [5] and in the series on Hepatitis C virus [2] were 33 nM, above 10000 nM and above 10000 nM, respectively.
Take `C[C@H](NC(=O)Cc1ccccc1)C(=O)Nc1ccc(C2(O)C(=O)N(Cc3ccco3)C(=S)N2c2cccc(F)c2)cc1` (stereo not given in full): the 50% effective concentration (EC50) in the series on Hepatitis C virus [6] stood at 43 nM.
A word on the Ki: it is the dissociation constant of the complex between target and ligand, obtained from inhibition or displacement. Consider `CC(C)C[C@H](NC(=O)[C@H](CCC(=O)O)NC(=O)OC(C)(C)C)C(=O)NC(CC(F)F)C(=O)C(=O)O` (stereo not given in full), for which the Ki is 17000 nM in series [7] and 27 nM in [8].
`Fc1cccc(NC(=S)NCc2ccco2)c1` registered an EC50 in the series with Hepatitis C virus [6] of 0.6 nM.
With `COc1ccc2c(c1)[C@@H]1C[C@]1(C(=O)N1C[C@@H](C)O[C@@H](C)C1)Cn1c-2c(C2CCCCC2)c2ccc(C(=O)NS(=O)(=O)N(C)C)cc21`, the EC50 amounted to 1 nM with Hepatitis C virus [9] and 3 nM with Hepatitis C virus [10].
`CC(=O)N[C@@H](CC(=O)O)C(=O)N[C@@H](CCC(=O)O)C(=O)N[C@H](C(=O)N[C@@H](CCC(=O)O)C(=O)N[C@@H](CC1CCCCC1)C(=O)N[C@@H](CC(F)F)C(=O)O)C(c1ccccc1)c1ccccc1` (Ac-DE[Dip]E[Cha][Abu(4,4-F2)]-OH) came in with an inhibitory constant (Ki) in series [11] of 3 nM.
Compound `CC(=O)N[C@H](C(=O)N[C@H](C(=O)N1C[C@H](OCc2cccc3ccccc23)C[C@H]1C(=O)NC1(C(=O)O)CC1)C(C)C)C1CCCCC1` (Ac-[Chg]V[Hyp](CH2(1-naphthyl))[Ac3c]-OH) registered an IC50 in series [12] of 3500 nM.
`COc1ccc2c(c1)C1CC1(C(=O)N1C3CCC1CN(C)C3)Cn1c-2c(C2CCCCC2)c2ccc(C(=O)NS(=O)(=O)N(C)C)cc21` (racemic): the EC50 in the series on Hepatitis C virus [1] was found to be 3 nM; with Hepatitis C virus [2] it was 208 nM.
As for Ac-DEMEEC-OH, in series [7], the Ki was 600 nM.
